Experimental data reported in patent US20240210412A1, “SULFONYL-TRIAZOLE COMPOUNDS USEFUL AS LIGANDS AND INHIBITORS OF PROSTAGLANDIN REDUCTASE 2” (University of Virginia Patent Foundation, priority 2021, published 2024).

Columns and labels:
Experiment in all cases: SILAC LC-MS ABPP
Format in all cases: cell-based
Conditions in all cases: 25 μM 2 h, live DM93 cells
P28482 = molecular target: T1, P28482 (Homo sapiens, UniProt P28482)
T1 construct: endogenous in cells; host or cells: DM93 (SILAC)
Summary of the method: (§1)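 First, heavy-labelled DM93 cells were exposed to SuTEx ligand (25 μM) and light cells to DMSO, 2 h at 37 °C. Second, HHS-475 (100 μM) was added for 2 h. Third, soluble lysates were clicked to desthiobiotin-azide, pooled 1:1, trypsin-digested, avidin-enriched and analysed by LC-MS/MS.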

P51784 = molecular target: T2, P51784 (Homo sapiens, UniProt P51784)
T2 construct: endogenous in cells; host or cells: DM93 cells (SILAC)
T2 sequence (P51784 whole entry): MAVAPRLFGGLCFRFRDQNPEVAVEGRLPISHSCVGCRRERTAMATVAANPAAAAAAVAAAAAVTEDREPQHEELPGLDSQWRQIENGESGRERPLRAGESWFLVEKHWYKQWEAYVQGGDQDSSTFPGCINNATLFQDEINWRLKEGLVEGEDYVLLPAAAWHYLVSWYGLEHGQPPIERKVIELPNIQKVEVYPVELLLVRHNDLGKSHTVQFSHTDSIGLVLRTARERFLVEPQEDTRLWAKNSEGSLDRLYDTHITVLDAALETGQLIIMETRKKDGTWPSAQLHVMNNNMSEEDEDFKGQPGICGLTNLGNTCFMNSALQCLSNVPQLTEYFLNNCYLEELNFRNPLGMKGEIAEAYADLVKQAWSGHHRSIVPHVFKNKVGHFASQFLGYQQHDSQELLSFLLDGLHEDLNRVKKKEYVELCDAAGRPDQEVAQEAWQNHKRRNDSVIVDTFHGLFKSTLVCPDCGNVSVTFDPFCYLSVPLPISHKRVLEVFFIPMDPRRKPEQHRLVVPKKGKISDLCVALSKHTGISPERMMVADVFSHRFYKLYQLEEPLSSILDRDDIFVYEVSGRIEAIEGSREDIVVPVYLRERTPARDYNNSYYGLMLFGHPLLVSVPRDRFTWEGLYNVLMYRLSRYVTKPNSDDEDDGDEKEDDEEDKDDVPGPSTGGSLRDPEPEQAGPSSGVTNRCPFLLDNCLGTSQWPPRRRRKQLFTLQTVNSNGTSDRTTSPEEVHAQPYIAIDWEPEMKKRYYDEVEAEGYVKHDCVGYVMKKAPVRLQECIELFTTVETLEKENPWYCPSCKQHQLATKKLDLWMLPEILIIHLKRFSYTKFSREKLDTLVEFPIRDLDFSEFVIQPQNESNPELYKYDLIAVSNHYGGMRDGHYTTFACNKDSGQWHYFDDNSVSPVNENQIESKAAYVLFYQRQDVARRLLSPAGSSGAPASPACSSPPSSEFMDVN
Summary of the method: as §1

P62277 = molecular target: T3, P62277 (Homo sapiens, UniProt P62277)
T3 construct: performing SuTEx compound screening directly in cells; endogenous in cells; host or cells: DM93 cells (SILAC)
Summary of the method: as §1

Q9UJ68 = molecular target: T4, Q9UJ68 (Homo sapiens, UniProt Q9UJ68)
T4 construct: endogenous in cells; host or cells: DM93 cells (SILAC)
T4 sequence (Q9UJ68 24-235): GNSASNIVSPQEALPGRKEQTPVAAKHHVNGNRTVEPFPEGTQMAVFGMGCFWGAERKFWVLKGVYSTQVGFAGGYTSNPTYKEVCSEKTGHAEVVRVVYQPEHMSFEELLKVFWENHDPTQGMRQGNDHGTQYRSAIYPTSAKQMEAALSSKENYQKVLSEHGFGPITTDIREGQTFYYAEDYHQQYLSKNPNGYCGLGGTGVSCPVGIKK
Summary of the method: as §1

O43390 = molecular target: T5, O43390 (Homo sapiens, UniProt O43390)
T5 construct: endogenous in cells; host or cells: DM93
Summary of the method: as §1

P24534 = molecular target: T6, P24534 (Homo sapiens, UniProt P24534)
T6 construct: endogenous in cells; host or cells: DM93 (SILAC)
Summary of the method: as §1

P62263 = molecular target: T7, P62263 (Homo sapiens, UniProt P62263)
T7 construct: performing SuTEx compound screening directly in cells; endogenous in cells; host or cells: DM93 cells (SILAC)
Summary of the method: as §1

Q00535 = molecular target: T8, Q00535 (Homo sapiens, UniProt Q00535)
T8 construct: performing SuTEx compound screening directly in cells; endogenous in cells; host or cells: DM93 cells (SILAC)
Summary of the method: as §1

Q86XP3 = molecular target: T9, Q86XP3 (Homo sapiens, UniProt Q86XP3)
T9 construct: endogenous in cells; host or cells: DM93 cells (SILAC), live-cell treatment
Summary of the method: as §1

O14578 = molecular target: T10, O14578 (Homo sapiens, UniProt O14578)
T10 construct: endogenous in cells; host or cells: DM93
T10 sequence (O14578 whole entry): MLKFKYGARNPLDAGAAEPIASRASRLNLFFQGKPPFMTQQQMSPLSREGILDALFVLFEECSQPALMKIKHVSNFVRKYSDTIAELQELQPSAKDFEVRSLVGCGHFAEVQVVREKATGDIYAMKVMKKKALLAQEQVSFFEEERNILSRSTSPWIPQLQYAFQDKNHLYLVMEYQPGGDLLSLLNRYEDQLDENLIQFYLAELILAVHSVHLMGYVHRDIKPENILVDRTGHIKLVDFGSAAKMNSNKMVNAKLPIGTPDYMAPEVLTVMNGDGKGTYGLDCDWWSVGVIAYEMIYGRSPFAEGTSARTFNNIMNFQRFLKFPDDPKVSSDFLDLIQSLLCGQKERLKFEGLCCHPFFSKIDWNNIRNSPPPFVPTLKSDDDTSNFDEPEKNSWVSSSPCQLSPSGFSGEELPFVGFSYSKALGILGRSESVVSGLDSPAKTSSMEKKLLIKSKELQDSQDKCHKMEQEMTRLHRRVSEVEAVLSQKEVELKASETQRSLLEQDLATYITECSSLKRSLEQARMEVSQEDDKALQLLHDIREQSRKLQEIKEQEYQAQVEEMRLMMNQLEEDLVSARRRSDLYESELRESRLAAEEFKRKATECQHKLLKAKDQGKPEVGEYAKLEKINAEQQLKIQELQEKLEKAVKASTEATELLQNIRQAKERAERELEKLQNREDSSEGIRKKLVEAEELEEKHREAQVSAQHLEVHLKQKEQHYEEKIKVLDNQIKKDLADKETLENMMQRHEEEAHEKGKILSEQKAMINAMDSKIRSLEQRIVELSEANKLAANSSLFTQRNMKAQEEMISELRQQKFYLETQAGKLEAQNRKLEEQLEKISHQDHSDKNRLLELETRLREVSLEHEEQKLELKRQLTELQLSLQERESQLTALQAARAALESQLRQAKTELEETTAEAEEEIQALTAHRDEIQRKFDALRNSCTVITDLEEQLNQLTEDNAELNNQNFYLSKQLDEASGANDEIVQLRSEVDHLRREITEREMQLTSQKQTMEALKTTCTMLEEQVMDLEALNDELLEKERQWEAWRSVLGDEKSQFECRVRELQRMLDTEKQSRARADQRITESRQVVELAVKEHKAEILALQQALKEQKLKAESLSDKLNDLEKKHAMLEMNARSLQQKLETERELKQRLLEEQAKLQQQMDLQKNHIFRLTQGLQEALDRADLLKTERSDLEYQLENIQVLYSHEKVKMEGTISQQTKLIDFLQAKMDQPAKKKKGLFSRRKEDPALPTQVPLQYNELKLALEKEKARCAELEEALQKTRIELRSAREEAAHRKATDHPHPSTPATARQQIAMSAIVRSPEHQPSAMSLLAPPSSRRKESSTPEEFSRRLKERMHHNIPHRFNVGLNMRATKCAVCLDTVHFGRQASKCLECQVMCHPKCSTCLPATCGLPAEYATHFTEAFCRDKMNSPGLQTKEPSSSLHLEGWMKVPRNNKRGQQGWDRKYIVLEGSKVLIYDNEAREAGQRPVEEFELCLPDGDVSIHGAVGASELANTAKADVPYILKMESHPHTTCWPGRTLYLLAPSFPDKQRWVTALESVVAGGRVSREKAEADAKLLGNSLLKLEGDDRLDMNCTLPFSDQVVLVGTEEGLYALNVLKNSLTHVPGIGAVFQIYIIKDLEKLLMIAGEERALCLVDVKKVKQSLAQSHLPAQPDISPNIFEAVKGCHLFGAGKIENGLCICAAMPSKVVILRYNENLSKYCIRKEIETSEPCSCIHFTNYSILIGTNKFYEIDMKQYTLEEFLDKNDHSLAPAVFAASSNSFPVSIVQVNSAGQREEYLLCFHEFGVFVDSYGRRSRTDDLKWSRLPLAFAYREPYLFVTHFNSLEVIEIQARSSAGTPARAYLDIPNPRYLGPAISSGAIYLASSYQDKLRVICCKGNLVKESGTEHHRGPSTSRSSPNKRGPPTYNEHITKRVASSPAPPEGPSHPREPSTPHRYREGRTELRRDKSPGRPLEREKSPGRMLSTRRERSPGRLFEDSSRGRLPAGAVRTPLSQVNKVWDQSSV
Summary of the method: as §1

P31948 = molecular target: T11, P31948 (Homo sapiens, UniProt P31948)
T11 construct: endogenous in cells; host or cells: DM93 (SILAC)
Summary of the method: as §1

Q09028 = molecular target: T12, Q09028 (Homo sapiens, UniProt Q09028)
T12 construct: performing SuTEx compound screening directly in cells; endogenous in cells; host or cells: DM93 cells (SILAC)
T12 sequence (Q09028 whole entry): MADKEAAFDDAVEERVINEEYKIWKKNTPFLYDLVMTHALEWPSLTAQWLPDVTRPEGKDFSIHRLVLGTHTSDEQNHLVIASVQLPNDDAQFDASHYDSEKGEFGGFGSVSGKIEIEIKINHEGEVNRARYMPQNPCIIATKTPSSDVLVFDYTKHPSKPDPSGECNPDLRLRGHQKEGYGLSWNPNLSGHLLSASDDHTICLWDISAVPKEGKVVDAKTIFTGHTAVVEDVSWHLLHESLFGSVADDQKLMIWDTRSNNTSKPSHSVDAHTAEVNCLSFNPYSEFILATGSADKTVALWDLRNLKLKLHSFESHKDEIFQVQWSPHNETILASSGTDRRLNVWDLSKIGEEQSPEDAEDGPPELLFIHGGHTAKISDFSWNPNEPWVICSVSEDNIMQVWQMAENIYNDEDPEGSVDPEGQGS
Summary of the method: as §1

Q7Z6E9 = molecular target: T13, Q7Z6E9 (Homo sapiens, UniProt Q7Z6E9)
T13 construct: endogenous in cells; host or cells: DM93 cells (SILAC), live-cell treatment
Summary of the method: as §1

Q9BTC8 = molecular target: T14, Q9BTC8 (Homo sapiens, UniProt Q9BTC8)
T14 construct: endogenous in cells; host or cells: DM93 cells (SILAC), treated live; soluble proteome analysed
Summary of the method: as §1

Q9NW64 = molecular target: T15, Q9NW64 (Homo sapiens, UniProt Q9NW64)
T15 construct: endogenous in cells; host or cells: DM93 cells (SILAC)
Summary of the method: as §1

Q9P2E9 = molecular target: T16, Q9P2E9 (Homo sapiens, UniProt Q9P2E9)
T16 construct: endogenous in cells; host or cells: DM93 cells (SILAC)
T16 sequence (Q9P2E9 whole entry): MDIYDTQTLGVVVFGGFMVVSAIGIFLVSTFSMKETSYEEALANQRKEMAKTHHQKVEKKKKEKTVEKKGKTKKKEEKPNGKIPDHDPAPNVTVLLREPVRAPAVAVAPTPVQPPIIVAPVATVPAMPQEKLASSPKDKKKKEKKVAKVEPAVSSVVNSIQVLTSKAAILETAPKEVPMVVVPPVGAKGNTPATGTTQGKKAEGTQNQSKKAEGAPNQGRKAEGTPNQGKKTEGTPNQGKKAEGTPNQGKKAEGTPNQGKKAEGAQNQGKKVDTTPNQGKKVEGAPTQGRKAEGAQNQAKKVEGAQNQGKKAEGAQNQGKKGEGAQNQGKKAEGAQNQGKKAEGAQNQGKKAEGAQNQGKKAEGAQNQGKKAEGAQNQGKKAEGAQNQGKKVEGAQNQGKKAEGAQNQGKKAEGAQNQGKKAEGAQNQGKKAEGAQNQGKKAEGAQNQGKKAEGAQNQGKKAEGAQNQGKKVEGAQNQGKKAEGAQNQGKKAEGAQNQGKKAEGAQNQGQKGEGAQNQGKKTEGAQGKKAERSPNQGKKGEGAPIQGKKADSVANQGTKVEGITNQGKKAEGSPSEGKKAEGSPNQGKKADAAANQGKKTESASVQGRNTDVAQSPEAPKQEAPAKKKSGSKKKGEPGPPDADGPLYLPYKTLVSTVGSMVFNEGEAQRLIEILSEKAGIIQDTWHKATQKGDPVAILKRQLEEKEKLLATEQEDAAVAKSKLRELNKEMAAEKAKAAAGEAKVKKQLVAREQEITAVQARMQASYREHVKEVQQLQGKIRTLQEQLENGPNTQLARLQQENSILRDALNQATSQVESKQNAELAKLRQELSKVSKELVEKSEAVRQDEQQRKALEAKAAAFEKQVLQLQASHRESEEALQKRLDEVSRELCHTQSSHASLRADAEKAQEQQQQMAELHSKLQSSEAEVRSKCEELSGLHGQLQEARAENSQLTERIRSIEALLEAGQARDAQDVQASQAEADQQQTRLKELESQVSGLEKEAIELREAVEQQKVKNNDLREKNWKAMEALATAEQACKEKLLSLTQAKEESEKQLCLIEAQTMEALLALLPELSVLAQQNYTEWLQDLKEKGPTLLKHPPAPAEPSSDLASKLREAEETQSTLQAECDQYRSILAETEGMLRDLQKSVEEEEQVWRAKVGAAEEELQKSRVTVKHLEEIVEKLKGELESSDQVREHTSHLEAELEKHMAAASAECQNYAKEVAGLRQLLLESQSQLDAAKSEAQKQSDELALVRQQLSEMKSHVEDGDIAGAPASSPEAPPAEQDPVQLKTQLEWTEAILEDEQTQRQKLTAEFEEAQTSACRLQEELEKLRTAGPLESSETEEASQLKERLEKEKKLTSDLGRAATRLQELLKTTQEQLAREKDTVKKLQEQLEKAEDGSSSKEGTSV
Summary of the method: as §1

P26358 = molecular target: T17, P26358 (Homo sapiens, UniProt P26358)
T17 construct: endogenous in cells; host or cells: DM93 (SILAC)
Summary of the method: as §1

P61978 = molecular target: T18, P61978 (Homo sapiens, UniProt P61978)
T18 construct: performing SuTEx compound screening directly in cells; endogenous in cells; host or cells: DM93 cells (SILAC)
Summary of the method: as §1

SMILES: O=C(NC1CC1)c1ccc(S(=O)(=O)n2cncn2)cc1 [HHS-0101, 4-((1H-1,2,4-triazol-1-yl)sulfonyl)-N-cyclopropylbenzamide]
- liganded tyrosine site 113 (P28482): HHS0101.Y (tyrosine sites that showed >80% reductions (SR >5) in probe labeling in cells treated with compounds (liganded sites))
- liganded tyrosine site 396 (P51784): HHS0101.Y (tyrosine sites that showed >80% reductions (SR >5) in probe labeling in cells treated with compounds (liganded sites))
- liganded tyrosine site 38 (P62277): HHS0101.Y (tyrosine sites that showed >80% reductions (SR >5) in probe labeling in cells treated with compounds (liganded sites))
- liganded tyrosine site 211 (Q9UJ68): HHS0101.Y|HHS0401.Y|HHS0701.Y (tyrosine sites that showed >80% reductions (SR >5) in probe labeling in cells treated with compounds (liganded sites))

SMILES: O=C(NCC1CC1)c1ccc(S(=O)(=O)n2cncn2)cc1 [HHS-0201, 4-((1H-1,2,4-triazol-1-yl)sulfonyl)-N-(cyclopropylmethyl)benzamide]
- liganded tyrosine site 578 (O43390): HHS0201.Y|HHS0301.Y|HHS0401.Y|HHS0701.Y (tyrosine sites that showed >80% reductions (SR >5) in probe labeling in cells treated with compounds (liganded sites))
- liganded tyrosine site 18 (P24534): HHS0201.Y|HHS0401.Y|HHS0701.Y (tyrosine sites that showed >80% reductions (SR >5) in probe labeling in cells treated with compounds (liganded sites))
- liganded tyrosine site 72 (P62263): HHS0201.Y|HHS0301.Y (tyrosine sites that showed >80% reductions (SR >5) in probe labeling in cells treated with compounds (liganded sites))
- liganded tyrosine site 242 (Q00535): HHS0201.Y (tyrosine sites that showed >80% reductions (SR >5) in probe labeling in cells treated with compounds (liganded sites))
- liganded tyrosine site 685 (Q86XP3): HHS0201.Y (tyrosine sites that showed >80% reductions (SR >5) in probe labeling in cells treated with compounds (liganded sites))

SMILES: O=C(NC1CCCCC1)c1ccc(S(=O)(=O)n2cncn2)cc1 [HHS-0301, 4-((1H-1,2,4-triazol-1-yl)sulfonyl)-N-cyclohexylbenzamide]
- liganded tyrosine site 818 (O14578): HHS0301.Y (tyrosine sites that showed >80% reductions (SR >5) in probe labeling in cells treated with compounds (liganded sites))
- liganded tyrosine site 134 (P31948): HHS0301.Y (tyrosine sites that showed >80% reductions (SR >5) in probe labeling in cells treated with compounds (liganded sites))
- liganded tyrosine site 154 (Q09028): HHS0301.Y|HHS0701.Y (tyrosine sites that showed >80% reductions (SR >5) in probe labeling in cells treated with compounds (liganded sites))
- liganded tyrosine site 218 (Q7Z6E9): HHS0301.Y (tyrosine sites that showed >80% reductions (SR >5) in probe labeling in cells treated with compounds (liganded sites))
- liganded tyrosine site 22 (Q9BTC8): HHS0301.Y (tyrosine sites that showed >80% reductions (SR >5) in probe labeling in cells treated with compounds (liganded sites))
- liganded tyrosine site 116 (Q9NW64): HHS0301.Y (tyrosine sites that showed >80% reductions (SR >5) in probe labeling in cells treated with compounds (liganded sites))
- liganded tyrosine site 647 (Q9P2E9): HHS0301.Y (tyrosine sites that showed >80% reductions (SR >5) in probe labeling in cells treated with compounds (liganded sites))

SMILES: O=C(NCc1ccccc1)c1ccc(S(=O)(=O)n2cncn2)cc1 [HHS-0401, 4-((1H-1,2,4-triazol-1-yl)sulfonyl)-N-benzylbenzamide]
- liganded tyrosine site 367 (P26358): HHS0401.Y (tyrosine sites that showed >80% reductions (SR >5) in probe labeling in cells treated with compounds (liganded sites))

SMILES: O=C(c1ccc(S(=O)(=O)n2cncn2)cc1)N1CCC(c2ccccc2)CC1 [HHS-0701, (4-((1H-1,2,4-triazol-1-yl)sulfonyl)phenyl)(4-phenylpiperidin-1-yl)methanone]
- liganded tyrosine site 138 (P61978): HHS0701.Y (tyrosine sites that showed >80% reductions (SR >5) in probe labeling in cells treated with compounds (liganded sites))
